# According to paper PMC12797238 (ACS Infectious Diseases, 2025):
# Values joined by “and” are separate entries in the source; they are usually repeats but may differ in a detail not shown here. Identical values can stand only once.
# Legend:
# [1] = test system: Toxoplasma tachyzoites mitochondrion; assay: Toxoplasma mitochondrial membrane potential (MitoTracker, cytometry and microscopy); format: cell-based, Toxoplasma gondii; conditions: 24 h at 3× EC50; for Mitotracker staining of T. gondii, microscopic observation: FCCP as uncoupler control; for T. gondii mitochondrial membrane potential, flow cytometric quantification of Mitotracker labeling: DFX at 60 nM
# Description: We used the MitoTracker Deep Red FM fluorescent probe (Invitrogen) to assess the mitochondrial membrane potential in Toxoplasma tachyzoites. […] After another 24 h of culture at 37 °C and 5% CO2, Mitotracker labeling was performed as described in the protocol provided by the manufacturer, with a 45 min incubation at 37 °C and 5% CO2 of the reconstituted dye diluted to 1/1000 in culture medium. Parasites were then fixed for 30 min in 4% (w/v) PFA (diluted in PBS), washed twice in PBS, scraped, syringed (with a 25 G needle), filtered on a 40 μm membrane, and resuspended in 1 mL of PBS. Parasites were then analyzed with an Aurora spectral cytometer (Cytek), using a 633 nm excitation laser and a 665 nm detector. 10,000 events were recorded. Mean fluorescence was plotted against vehicle-treated culture parasites using Prism 8.0 (GraphPad Software), and statistical significance was determined using one-way ANOVA with Tukey’s multiple-comparison test. The experiment was performed for three biologically independent replicates. For the membrane depolarization control, parasites were treated with 10 μM FCCP for 30 min prior to and during incubation with the Mitotracker dye.
# Intracellular parasites and the host cell monolayer were then fixed 24 h later with 4% (w/v) PFA (diluted in PBS) for 20 min, and after fixation, cells were permeabilized with 0.3% (v/v) Triton X-100 (diluted in PBS) for 10 min. Costaining with the anti-F1β ATPase mitochondrial marker was performed as described below.
# Human BJ Fibroblast = assay: Drug sensitivity assay, dose–response curves, human BJ fibroblasts; format: cell-based; conditions: mean, n ≥ 3
# Excerpt: (§1) Human fibroblasts, T. brucei, T. gambiense, P. falciparum, L. mexicana, and B. divergens were cultivated as described previously, and dose–response curves were obtained by their cultivation on 96 well plates in a 2-fold seriel dilution of the appropriate drug.
# [2] = test system: Trypanosoma brucei bloodstream forms; assay: Drug sensitivity assay, dose–response curves, T. brucei; format: cell-based; conditions: for EC50: bloodstream forms, mean, n ≥ 3; for T. brucei selectivity: relative to human BJ fibroblast EC50
# Excerpt: as §1
# [3] = test system: Trypanosoma gambiense bloodstream forms; assay: Drug sensitivity assay, dose–response curves, T. gambiense; format: cell-based; conditions: for EC50: bloodstream forms, mean, n ≥ 3; for T. gambiense selectivity: relative to fibroblasts
# Excerpt: as §1
# [4] = test system: Leishmania mexicana axenic amastigotes; assay: Drug sensitivity assay, dose–response curves, L. mexicana; format: cell-based; conditions: for EC50: axenic amastigotes, mean, n ≥ 3; for L. mexicana selectivity: relative to fibroblasts
# Excerpt: as §1
# [5] = test system: Toxoplasma gondii tachyzoites (RH strain), intracellular stages; assay: T. gondii lytic cycle plaque assay in HFF monolayers; format: cell-based; conditions: for EC50: intracellular stages, plaque assay in HFFs, 7 days, n ≥ 3; for T. gondii selectivity: relative to fibroblasts
# Description: T. gondii tachyzoites of the RH strain were routinely maintained through passages in a human foreskin fibroblasts (HFFs) monolayer (ATCC CRL-1634). HFFs and parasites were cultured in standard Dulbecco’s Modified Eagle Medium (DMEM), supplemented with 5% decomplemented fetal bovine serum (FBS), 2 mM L-glutamine, 100 U/mL penicillin, and 100 μg/mL streptomycin (Gibco) at 37 °C and with 5% CO2 in an incubator with a controlled atmosphere.
# The lytic cycle of T. gondii tachyzoites was assessed by a plaque assay as described previously. Briefly, tachyzoites were allowed to invade monolayers of HFFs for 3 h before addition of the compounds or the DMSO vehicle and were subsequently cultivated for 7 days at 37 °C and 5% CO2. They were then fixed with 4% (w/v) paraformaldehyde (PFA, diluted in phosphate-buffered saline (PBS)) for 20 min and stained with a 0.1% crystal violet solution (V5265, Sigma-Aldrich), washed, and air-dried before imaging under an Olympus MVX10 microscope.
# Figure S1. EC50 determination of selected compounds in Toxoplasma.
# B) EC50 curves based on plaque
# area measured from three independent plaque assays. Data are mean ± standard deviation. C)
# vacuoles were counted for each con dition. Values represented are mean ± standard deviation of […]
# [6] = test system: Babesia divergens intracellular stages; assay: Drug sensitivity assay, dose–response curves, B. divergens; format: cell-based; conditions: for EC50: intracellular stages, mean, n ≥ 3; for B. divergens selectivity: relative to fibroblasts
# Excerpt: as §1
# [7] = test system: Plasmodium falciparum intracellular stages; assay: Drug sensitivity assay, dose–response curves, P. falciparum; format: cell-based; conditions: for EC50: intracellular stages, mean, n ≥ 3; for P. falciparum selectivity: relative to fibroblasts
# Excerpt: as §1
# [8] = test system: T. brucei 427 bloodstream form mitochondria; assay: Mitochondrial membrane potential in T. brucei (TMRE, flow cytometry); format: cell-based, Trypanosoma brucei; conditions: 24 h at 3× EC50
# Description: The mitochondrial membrane potential of T. brucei 427 bloodstream form was assessed using the fluorescent probe TMRE (Thermo Fisher Scientific) as described in ref . […] Untreated cells and cells preincubated with a 50 μM CCCP uncoupler for 30 min were used as negative and positive controls, respectively. Approximately 1 × 10^6 cells were incubated with 60 nM TMRE for 30 min, washed 1× with sterile PBS, and 5,000 events were measured on a Guava EasyCyte 8HT flow cytometer (Luminex) using a 488 nm excitation laser and a 583/26 nm detector. Median fluorescence was plotted against an untreated culture using Prism 8.0 (GraphPad Software), and statistical significance was determined using RM one-way ANOVA with Geisser–Greenhouse correction. The experiment was performed in three biologically independent replicates.
# [9] = test system: T. brucei 427 bloodstream forms, protein-bound iron; assay: Iron distribution in T. brucei (55Fe, blue native electrophoresis, phosphor imaging); format: cell-based, Trypanosoma brucei; conditions: T. brucei preincubated with 55Fe; 8 h exposure; EC90 concentrations for 14 and 15
# Description: The assay was performed as described in ref . T. brucei 427 bloodstream forms were grown in HMI-9 medium supplemented with 0.5 μM ^55Fe (29 600 MBq mg^–1) in the form of ferric citrate (1:20) and incubated for 24 h. […] Untreated cells were used as a control. After incubation, the cells were harvested by centrifugation and washed three times with NaCl–HEPES buffer (140 mM NaCl, 10 mM HEPES, pH 7.4). Cells were lysed by sonication in NaCl–HEPES buffer containing 1% digitonin and cOmplete EDTA-free protease inhibitor cocktail (Roche). Gels were vacuum-dried, autoradiographed for 5 days using a BAS-IP TR 2025 E tritium storage phosphor screen (GE Healthcare), and visualized with Typhoon FLA 7000 (GE Healthcare).
# T. gondii mitochondrion = assay: Toxoplasma immunofluorescence assay of organelle morphology; format: cell-based, Toxoplasma gondii; conditions: 24 h at 3× EC50; for morphology of the T. gondii mitochondrion: DFX at 60 nM
# Description: For IFAs to assess organelle morphology, coverslips seeded with HFFs were infected with T. gondii tachyzoites, and 3 h later, compounds were added (at 3 times their respective EC50). Intracellular parasites and host cell monolayers were then fixed 24 h later with 4% (w/v) PFA (diluted in PBS) for 20 min. After fixation, cells were permeabilized with 0.3% (v/v) Triton X-100 (diluted in PBS) for 10 min. Coverslips were blocked with 2% (w/v) bovine serum albumin (BSA) for 1 h prior to immunolabeling with a primary antibody for 1 h. After 3 washes in PBS, a corresponding secondary antibody was incubated for 1 h. Coverslips were then incubated with 1 μg/mL of Hoechst stain for 5 min before 3 washes in PBS and, finally, mounted using Immu-Mount (Thermo Fisher) onto microscope slides. Primary antibodies used were prepared in 2% BSA (diluted in PBS) and used at the following concentrations: the apicoplast was stained using rabbit anti-PDH-E2 (1:500), the mitochondrion was stained using mouse anti-F1β ATPase (1:1000, gift of P. Bradley). Anti-mouse and anti-rabbit secondary antibodies were all from Thermo Fisher and were diluted at 1:4000. Image acquisition was performed with a Zeiss Axio Observer inverted microscope equipped with a Zeiss Axiocam 712 camera and 63×/1.4 or 100×/1.4 Oil Plan Achromat objectives. Images were processed with Zen Blue v3.6 software (Zeiss). Z-stack acquisitions were processed by a maximum-intensity orthogonal projection. Adjustments of brightness and contrast were applied uniformly, and paired images were acquired with the same exposure time. Quantifications of mitochondrial morphology were performed by microscopic observation of a series of at least 100 parasites, and data from three independent biological replicates was acquired and plotted using Prism 8.0 (GraphPad Software). Statistical significance was determined using one-way ANOVA with Tukey’s multiple-comparison test.
# T. gondii tachyzoites = conditions: 24 h treatment at 3× EC50
# Description: Parasites were allowed to invade an HFF monolayer on coverslips for 3 h before addition of the compounds (at 3 times their respective EC50) and left to grow for 24 h before being fixed and performing parasites immunodetection was by IFA with a mouse anti-SAG1 antibody, as described previously. The number of parasites per vacuole was counted and scored. Independent experiments were conducted 3 times, and 200 random vacuoles were counted for each condition.
# Replication assay of T. gondii tachyzoites, which were allowed to invade HFF -coated coverslips,
# then treated for 24 h with the compounds at 3 times the EC50 or DMSO vehicle, after which number
# of parasites per vacuole was quantified for each condition and expressed as a percentage, 200
# the compounds, using two -way ANOVA with Dunnett’s multiple comparison test.
SMILES,"Mitotracker staining of T. gondii, microscopic observation [1]",EC50 (Human BJ Fibroblast) [nM],EC50 [2],EC50 [3] [nM],T. gambiense selectivity [3],EC50 [4] [nM],L. mexicana selectivity [4],EC50 [5] [nM],T. gondii selectivity [5],EC50 [6] [nM],B. divergens selectivity [6],EC50 [7] [nM],P. falciparum selectivity [7],mitochondrial membrane potential of T. brucei (relative to untreated) [8],change in overall protein-bound iron distribution [9],"T. gondii mitochondrial membrane potential, flow cytometric quantification of Mitotracker labeling [1]",morphology of the T. gondii mitochondrion (T. gondii mitochondrion),further results
"N#CC(C#N)=NNc1ccc(OC(F)(F)F)cc1 [FCCP, carbonyl cyanide p-trifluoromethoxyphenylhydrazone, reference compound]",diffuse Mitotracker signal,–,–,–,–,–,–,–,–,–,–,–,–,–,–,–,–,–
"CC(C)(C)OC(=O)NNc1ccc(C(=O)NCCCCCCCCCC[P+](c2ccccc2)(c2ccccc2)c2ccccc2)cc1.[Cl-] [compound 15, triphenylphosphine-C10-NHCOBocFenylhydrazine]",strong decrease in Mitotracker staining,7400,37 nM and 37.5 nM,60,122,348,21,350,21,76.2,96,311,23,less than 50%,neither mitoDFX nor the nonchelating compound 15 did cause any detectable change,most impactful,altered the morphology of the organelle,–
"O=C(NCCCCCCCCCC[P+](c1ccccc1)(c1ccccc1)c1ccccc1)c1ccc(-n2nc(-c3ccccc3O)nc2-c2ccccc2O)cc1.[Cl-] [compound 14, triphenylphosphine-C10-DFX]",strong decrease in Mitotracker staining,1710,4.2 nM,10.4,165,52,33,17,101,41.2,42,54.8,31,less than 50%,neither mitoDFX nor the nonchelating compound 15 did cause any detectable change,most impactful,altered the morphology of the organelle,EC50 ([2]; listed as mitoDFX): 4 nM; T. brucei selectivity ([2]; listed as mitoDFX): > 300; quantified mitochondrial morphology change (fragmented/collapsed) by IFA (T. gondii mitochondrion): caused the collapse of most T. gondii mitochondria; impact on T. gondii replication (parasites per vacuole) (T. gondii tachyzoites): particularly strong
"O=C(O)c1ccc(-n2nc(-c3ccccc3O)nc2-c2ccccc2O)cc1 [compound 17, deferasirox, reference compound]",–,> 25000,–,–,–,–,–,–,–,–,–,–,–,–,–,no specific impact,largely preserved,EC50 ([2]; Trypanosoma brucei): 8790 nM
"Oc1ccccc1-c1nc(-c2ccccc2O)n(CCCCCCCCCC[P+](c2ccccc2)(c2ccccc2)c2ccccc2)n1.[Br-] [compound 11, triphenylphosphineBr-C10-norbenzoic-DFX]",strong decrease in Mitotracker staining,2110,5.5 nM,7.5,282,132,16,5,422,17.2,122,238,9,less than 50%,–,–,altered the morphology of the organelle,T. brucei selectivity [2]: > 300
